Test [1] relates to leukotriene pathway in human whole blood (LTB4 levels). Description: Human whole blood assay (A23187-stimulated LTB4). In kind it is cell-based. Conditions: read-out: LTB4 IC50 1:1. Summed up:
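Blood (heparin) diluted 1:1 RPMI; compound pre-incubation 15 min, 37° Celsius; A23187 7 μg/mL, 30 min, 37° Celsius; plasma LTB4 by commercial kit. IC50 via 4-parameter equation.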

For another test, the target named is human FLAP (Homo sapiens (Human), UniProt P20292). Description: FLAP binding assay (HTRF format). A digest of the protocol:
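Binding of compounds to FLAP read out as HTRF ratio. Values are the mean of two assay plates, each sample run in duplicate per plate.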

Setting [2] is: Homo sapiens, human whole blood diluted 1:1 in RPMI, A23187-stimulated LTB4.
The mark [3] stands for this setting: human FLAP wild type, HTRF format, average of two plates, duplicates.
Where [4] appears, read: Homo sapiens, human whole blood diluted 1:1, A23187-stimulated.

Like-named read-outs stand apart in the source and are kept apart here.

Sequence of human FLAP (P20292 whole entry): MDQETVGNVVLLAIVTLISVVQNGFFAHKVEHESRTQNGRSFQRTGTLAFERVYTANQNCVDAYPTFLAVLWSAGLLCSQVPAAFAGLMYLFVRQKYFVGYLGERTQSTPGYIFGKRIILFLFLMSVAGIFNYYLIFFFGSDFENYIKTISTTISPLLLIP

For `C[C@H](NS(=O)(=O)c1ccccc1-c1ccc(-c2cnc(N)cn2)c(F)c1)C(O)c1ccccc1` (stereo in doubt) [Example 83, 4′-(5-Aminopyrazin-2-yl)-3′-fluoro-N-[(1S,2R)-2-hydroxy-1-methyl-2-phenylethyl]biphenyl-2-sulfonamide], the IC50 in test [1] (setting [2]) was 0.019 µM. In addition, at human FLAP (setting [3]), the Ki is 0.001 µM.

As to `NC[C@H]1CCCN1S(=O)(=O)c1ccccc1-c1ccc(-c2cnc(N)cn2)c(F)c1` (stereo in doubt) [Example 94, 5-(2′-{[2-(Aminomethyl)pyrrolidin-1-yl]sulfonyl}-3-fluorobiphenyl-4-yl)pyrazin-2-amine], the 50% inhibitory concentration (IC50) in test [1] (setting [2]) turned out to be 0.235 µM. Further, the affinity at human FLAP (setting [3]) corresponds to a Ki of 0.076 µM.

Regarding `CC(CO)NS(=O)(=O)c1ccccc1-c1ccc(-c2ccc(N)nc2)c(F)c1` (stereo in doubt) [Example 352, (R)-4′-(6-Aminopyridin-3-yl)-3′-fluoro-N-(1-hydroxypropan-2-yl)-[1,1′-biphenyl]-2-sulfonamide], the IC50 in test [1] (human whole blood diluted 1:1 in RPMI, A23187-stimulated LTB4) came to 0.064 µM. Also, the Ki at human FLAP (setting [3]) amounted to 0.016 µM.

Take `CC(CO)NS(=O)(=O)c1ccccc1-c1ccc(-c2cnc3[nH]ccc3n2)c(F)c1` (stereo in doubt) [Example 378, 3′-Fluoro-N-[(1R)-2-hydroxy-1-methylethyl]-4′-(5H-pyrrolo[2,3-b]pyrazin-2-yl)biphenyl-2-sulfonamide]: in test [1] (setting [2]), the IC50 was found to be 0.016 µM. On human FLAP (setting [3]), the affinity corresponds to a Ki of 0.001 µM.

Turning to `CC(CO)NS(=O)(=O)c1ccccc1-c1ccc(-c2cnc3[nH]ccc3n2)c(F)c1` (stereo in doubt) [Example 380, 3′-Fluoro-N-[(1S)-2-hydroxy-1-methylethyl]-4′-(5H-pyrrolo[2,3-b]pyrazin-2-yl)biphenyl-2-sulfonamide], in test [1] (setting [2]), the IC50 was 0.046 µM. The compound further showed an inhibition constant Ki at human FLAP (setting [3]) of 0.001 µM.

With `CC(CO)NS(=O)(=O)c1ccccc1-c1ccc(-c2cnc(N)c(C#N)n2)c(F)c1` (stereo in doubt) [Example 410, 4′-(5-amino-6-cyanopyrazin-2-yl)-3′-fluoro-N-[(1R)-2-hydroxy-1-methylethyl]biphenyl-2-sulfonamide], the IC50 in test [1] (setting [4]) was 0.088 µM. The affinity on human FLAP (wild type FLAP, HTRF format) corresponds to a Ki of 0.004 µM.

For the compound `CC(CO)NS(=O)(=O)c1ccccc1-c1ccc(-c2cnc(N)c(C#N)n2)c(F)c1` (stereo in doubt) [Example 412, 4′-(5-Amino-6-cyanopyrazin-2-yl)-3′-fluoro-N-[(1S)-2-hydroxy-1-methylethyl]biphenyl-2-sulfonamide], the IC50 in test [1] (setting [4]) turned out to be 0.509 µM. On human FLAP (wild type FLAP, HTRF format), this compound had a Ki of 0.019 µM.

With `CC(CO)Oc1ncccc1-c1ccc(-c2cnc(N)cn2)c(F)c1` (stereo in doubt) [Example 655, (2R)-2-({3-[4-(5-Aminopyrazin-2-yl)-3-fluorophenyl]pyridin-2-yl}oxy)propan-1-ol], the 50% inhibitory concentration (IC50) in test [1] (setting [4]) was 1.83 µM. In addition, the affinity on human FLAP (wild type FLAP, HTRF format) corresponds to a Ki of 0.503 µM.

As to `CC(CO)Oc1ncccc1-c1ccc(-c2cnc(N)cn2)c(F)c1` (stereo in doubt) [Example 657, (2S)-2-({3-[4-(5-Aminopyrazin-2-yl)-3-fluorophenyl]pyridin-2-yl}oxy)propan-1-ol], the IC50 in test [1] (setting [4]) worked out at 2.34 µM. In addition, the Ki on human FLAP (wild type FLAP, HTRF format) stood at 0.0735 µM.

`CS(=O)(=O)c1ccccc1-c1ccc(-c2cnc(N)cn2)c(F)c1` [Example 1, 5-[3-Fluoro-2′-(methylsulfonyl)biphenyl-4-yl]pyrazin-2-amine]: in test [1] (setting [2]), the IC50 was determined as 0.86 µM. The same compound gave a Ki on human FLAP (setting [3]) of 0.217 µM.

In the case of `CS(=O)(=O)Nc1ccccc1-c1ccc(-c2cnc(N)cn2)c(F)c1` [Example 2, N-[4′-(5-Aminopyrazin-2-yl)-3′-fluorobiphenyl-2-yl]methanesulfonamide], the IC50 in test [1] (setting [2]) stood at 0.358 µM. For the same compound, affinity at human FLAP (setting [3]) was put at a Ki of 0.286 µM.

Turning to `CC(C)(C)NS(=O)(=O)c1ccccc1-c1ccc(-c2cnc(N)cn2)c(F)c1` [Example 4, 4′-(5-Aminopyrazin-2-yl)-N-tert-butyl-3′-fluorobiphenyl-2-sulfonamide], the IC50 in test [1] (setting [2]) was 0.018 µM. The compound further came in with an inhibitory constant (Ki) on human FLAP (setting [3]) of 0.001 µM.

Consider `Nc1cnc(-c2ccc(-c3ccccc3S(N)(=O)=O)cc2F)cn1` [Example 5, 4′-(5-Aminopyrazin-2-yl)-3′-fluorobiphenyl-2-sulfonamide], for which the concentration for half-maximal inhibition (IC50) in test [1] (setting [2]) turned out to be 0.37 µM. Besides, at human FLAP (setting [3]), affinity was put at a Ki of 0.035 µM.

Take `Nc1cnc(-c2ccc(-c3ccccc3S(=O)(=O)NC3CCCCC3)cc2F)cn1` [Example 6, 4′-(5-Aminopyrazin-2-yl)-N-cyclohexyl-3′-fluorobiphenyl-2-sulfonamide]: the IC50 in test [1] (setting [2]) was 0.033 µM. Besides, at human FLAP (setting [3]), the affinity, expressed as Ki, was 0.001 µM.

As for `CC(C)CNS(=O)(=O)c1ccccc1-c1ccc(-c2cnc(N)cn2)c(F)c1` [Example 7, 4′-(5-Aminopyrazin-2-yl)-3′-fluoro-N-(2-methylpropyl)biphenyl-2-sulfonamide], in test [1] (setting [2]), the IC50 is 0.014 µM. Also, the Ki on human FLAP (setting [3]) was found to be 0.002 µM.

With `Nc1cnc(-c2ccc(-c3ccccc3S(=O)(=O)NCC3CCC3)cc2F)cn1` [Example 9, 4′-(5-Aminopyrazin-2-yl)-N-(cyclobutylmethyl)-3′-fluorobiphenyl-2-sulfonamide], the IC50 in test [1] (setting [2]) came to 0.06 µM. Also, the Ki on human FLAP (setting [3]) was 0.003 µM.

Consider `CC1(NS(=O)(=O)c2ccccc2-c2ccc(-c3cnc(N)cn3)c(F)c2)CCC1` [Example 11, 4′-(5-Aminopyrazin-2-yl)-3′-fluoro-N-(1-methylcyclobutyl)biphenyl-2-sulfonamide], for which the IC50 in test [1] (setting [2]) was found to be 0.015 µM. Moreover, the affinity on human FLAP (setting [3]), expressed as Ki, was 0.002 µM.

Consider `CCC(C)(C)NS(=O)(=O)c1ccccc1-c1ccc(-c2cnc(N)cn2)c(F)c1` [Example 12, 4′-(5-Aminopyrazin-2-yl)-N-(1,1-dimethylpropyl)-3′-fluorobiphenyl-2-sulfonamide], for which, in test [1] (setting [2]), the IC50 is 0.021 µM. The same compound registered a Ki at human FLAP (setting [3]) of 0.002 µM.

Regarding `CC(C)(NS(=O)(=O)c1ccccc1-c1ccc(-c2cnc(N)cn2)c(F)c1)C(F)(F)F` [Example 13, 4′-(5-Aminopyrazin-2-yl)-3′-fluoro-N-(2,2,2-trifluoro-1,1-dimethylethyl)biphenyl-2-sulfonamide], the half-maximal inhibitory concentration (IC50) in test [1] (setting [2]) came out at 0.018 µM. Also, at human FLAP (read-out: FLAP Binding wild type HTRF Ki), the inhibitory constant (Ki) amounted to 0.001 µM.

Turning to `Nc1cnc(-c2ccc(-c3ccccc3S(=O)(=O)NC3CCCC3)cc2F)cn1` [Example 14, 4′-(5-Aminopyrazin-2-yl)-N-cyclopentyl-3′-fluorobiphenyl-2-sulfonamide], the IC50 in test [1] (setting [2]) turned out to be 0.032 µM. Moreover, affinity at human FLAP (setting [3]) was put at a Ki of 0.003 µM.

`CNS(=O)(=O)c1ccccc1-c1ccc(-c2cnc(N)cn2)c(F)c1` [Example 15, 4′-(5-Aminopyrazin-2-yl)-3′-fluoro-N-methylbiphenyl-2-sulfonamide]: the half-maximal inhibitory concentration (IC50) in test [1] (setting [2]) stood at 0.059 µM. Moreover, on human FLAP (setting [3]), the Ki was 0.01 µM.

With `CCNS(=O)(=O)c1ccccc1-c1ccc(-c2cnc(N)cn2)c(F)c1` [Example 16, 4′-(5-Aminopyrazin-2-yl)-N-ethyl-3′-fluorobiphenyl-2-sulfonamide], the IC50 in test [1] (setting [2]) amounted to 0.018 µM. The affinity on human FLAP (setting [3]) corresponds to a Ki of 0.006 µM.

Consider `Nc1cnc(-c2ccc(-c3ccccc3S(=O)(=O)NCCc3ccccc3)cc2F)cn1` [Example 17, 4′-(5-Aminopyrazin-2-yl)-3′-fluoro-N-(2-phenylethyl)biphenyl-2-sulfonamide], for which the IC50 in test [1] (setting [2]) came out at 0.025 µM. The same compound displayed an inhibitory constant (Ki) on human FLAP (setting [3]) of 0.002 µM.

Take `Nc1cnc(-c2ccc(-c3ccccc3S(=O)(=O)N[C@H](c3ccccc3)C(F)(F)F)cc2F)cn1` [Example 18, (R)-4′-(5-Aminopyrazin-2-yl)-3′-fluoro-N-[(1R)-2,2,2-trifluoro-1-phenylethyl]biphenyl-2-sulfonamide]: in test [1] (setting [2]), the concentration for half-maximal inhibition (IC50) worked out at 0.07 µM. Further, affinity on human FLAP (setting [3]) was put at a Ki of 0.002 µM.

Usually IC50 stands for the midpoint of a concentration-inhibition curve. A word on the Ki: it is a measure of affinity in units of concentration, obtained from inhibition or displacement.

For the origin of these results see patent US9079866B2, “Flap modulators” (JANSSEN PHARMACEUTICA NV, priority 2013, dated 2015).
